Measurements published in ChEMBL document CHEMBL1148813, “Discovery and characterization of novel, potent, non-peptide parathyroid hormone-1 receptor antagonists” (J Med Chem, 2007).

Legend:
[1] = target: T1, Parathyroid hormone/parathyroid hormone-related peptide receptor (Homo sapiens, UniProt Q03431); test: Displacement of [125I]-[Nle,8,18 Tyr34]-hPTH(1-34) from human recombinant PTH1R expressed in HEK293 cells; assay type: cell-based
T1 sequence (Q03431 whole entry): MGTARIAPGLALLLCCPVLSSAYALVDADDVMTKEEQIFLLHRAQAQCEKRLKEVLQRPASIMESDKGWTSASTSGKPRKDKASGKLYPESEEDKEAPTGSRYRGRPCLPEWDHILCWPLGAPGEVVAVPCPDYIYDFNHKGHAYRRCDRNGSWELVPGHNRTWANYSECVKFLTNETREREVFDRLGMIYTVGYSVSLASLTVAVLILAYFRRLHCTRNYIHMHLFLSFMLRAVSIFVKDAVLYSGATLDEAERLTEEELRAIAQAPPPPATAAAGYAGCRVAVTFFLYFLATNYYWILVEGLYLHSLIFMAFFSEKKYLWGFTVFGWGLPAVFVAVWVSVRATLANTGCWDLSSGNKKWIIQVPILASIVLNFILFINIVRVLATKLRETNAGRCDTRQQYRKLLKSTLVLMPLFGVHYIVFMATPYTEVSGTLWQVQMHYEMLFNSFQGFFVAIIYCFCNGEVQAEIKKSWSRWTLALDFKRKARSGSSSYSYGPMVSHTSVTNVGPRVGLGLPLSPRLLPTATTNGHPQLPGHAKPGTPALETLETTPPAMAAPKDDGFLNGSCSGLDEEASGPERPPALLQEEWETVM

[2] = target: T2, Parathyroid hormone/parathyroid hormone-related peptide receptor (Homo sapiens) (UniProt Q03431); test: Displacement of [125I]-[Nle,8,18 Tyr34]-hPTH(1-34) from human recombinant PTH1R expressed in HEK293 cells at 10 uM; assay type: cell-based
T2 sequence (whole entry): T1 sequence (Q03431 whole entry)

[3] = target: T2, Parathyroid hormone/parathyroid hormone-related peptide receptor (Homo sapiens); test: Displacement of [125I]-[Nle,8,18 Tyr34]-hPTH(1-34) from human recombinant PTH1R expressed in HEK293 cells at 1 uM; assay type: cell-based
Homo sapiens = species: Homo sapiens; test: Selectivity for human recombinant PTH1 receptor over human recombinant PTH2 receptor
[4] = target: Parathyroid hormone 2 receptor (Homo sapiens) (UniProt P49190); test: Antagonist activity at human recombinant PTH2 receptor expressed in CHOK1 cells assessed as inhibition of TIP (1-39)-stimulated cAMP production at 10 uM; conditions: read-out: pA2 (converted)
Chain of Parathyroid hormone 2 receptor (Homo sapiens) (P49190 whole entry, looked up): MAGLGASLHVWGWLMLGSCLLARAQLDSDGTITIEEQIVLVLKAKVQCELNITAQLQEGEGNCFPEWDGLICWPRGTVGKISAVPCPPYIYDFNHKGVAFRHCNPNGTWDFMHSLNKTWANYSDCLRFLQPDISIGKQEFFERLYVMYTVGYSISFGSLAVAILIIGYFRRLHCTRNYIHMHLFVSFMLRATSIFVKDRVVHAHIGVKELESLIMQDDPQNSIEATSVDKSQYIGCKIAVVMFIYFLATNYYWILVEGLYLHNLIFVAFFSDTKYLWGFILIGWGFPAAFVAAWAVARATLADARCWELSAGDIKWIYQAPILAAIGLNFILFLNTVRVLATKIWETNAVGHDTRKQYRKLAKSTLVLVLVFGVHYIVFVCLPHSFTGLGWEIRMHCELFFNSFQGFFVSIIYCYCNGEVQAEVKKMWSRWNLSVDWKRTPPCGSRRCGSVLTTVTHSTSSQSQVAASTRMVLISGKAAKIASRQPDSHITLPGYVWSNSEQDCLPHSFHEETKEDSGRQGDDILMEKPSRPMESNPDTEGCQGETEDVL

[5] = target: T1, Parathyroid hormone/parathyroid hormone-related peptide receptor; test: Antagonist activity at human wild type PTH1 receptor expressed in SaOS2 cells assessed as inhibition of PTHrP (1-34)-stimulated cAMP production at 3 uM; assay type: functional, cell-based, SAOS-2; conditions: read-out: pA2 (converted)
[6] = target: T2, Parathyroid hormone/parathyroid hormone-related peptide receptor (Homo sapiens); test: Antagonist activity at human wild type PTH1 receptor expressed in SaOS2 cells assessed as inhibition of PTHrP (1-34)-stimulated cAMP production; assay type: functional, cell-based; conditions: SAOS-2
[7] = target: T3, Parathyroid hormone/parathyroid hormone-related peptide receptor (Mus musculus, UniProt P41593); test: Antagonist activity at mouse wild type PTH1 receptor expressed in MC3T3E1 cells assessed as inhibition of PTHrP (1-34)-stimulated cAMP production at 3 uM; assay type: functional, cell-based; conditions: read-out: pA2 (converted)
T3 sequence (P41593 whole entry): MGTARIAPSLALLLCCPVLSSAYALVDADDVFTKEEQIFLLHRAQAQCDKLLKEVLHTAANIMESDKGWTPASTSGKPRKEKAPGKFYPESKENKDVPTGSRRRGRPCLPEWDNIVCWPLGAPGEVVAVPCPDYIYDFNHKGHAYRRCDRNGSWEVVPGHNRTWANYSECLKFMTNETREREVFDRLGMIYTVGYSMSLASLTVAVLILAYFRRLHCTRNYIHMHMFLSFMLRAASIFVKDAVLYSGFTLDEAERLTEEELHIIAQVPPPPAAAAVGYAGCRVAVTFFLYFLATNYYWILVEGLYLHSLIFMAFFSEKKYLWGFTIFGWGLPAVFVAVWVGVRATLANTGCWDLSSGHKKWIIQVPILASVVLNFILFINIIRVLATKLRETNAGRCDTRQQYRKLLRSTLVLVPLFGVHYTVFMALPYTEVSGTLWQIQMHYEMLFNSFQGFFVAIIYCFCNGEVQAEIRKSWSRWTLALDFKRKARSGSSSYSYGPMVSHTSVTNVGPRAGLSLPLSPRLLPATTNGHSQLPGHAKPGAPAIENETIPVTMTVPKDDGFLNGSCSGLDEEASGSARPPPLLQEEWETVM

[8] = target: T1, Parathyroid hormone/parathyroid hormone-related peptide receptor; test: Antagonist activity at human recombinant PTH1 receptor expressed in HEK293 cells assessed as inhibition of PTH(1-34)-stimulated cAMP production; assay type: functional, cell-based; conditions: read-out: pA2 (converted)

| Compound | Ki [1] [nM] | other results |
| --- | --- | --- |
| Cc1ccc2c(c1)N(c1ccc(NC3=NCCN3)cc1)C(=O)N(Cc1ccccc1)N=C2C1CCCCC1 | 70.8 | – |
| Cc1ccc2c(c1)N(c1ccc(NC(=O)C(N)C(C)C)cc1)C(=O)N(Cc1ccccc1)N=C2C1CCCCC1 (stereo not given) | 112 | – |
| N=C(N)Nc1ccc(N2C(=O)N(Cc3ccccc3)N=C(c3ccccc3)c3ccccc32)cc1 | 3390 | – |
| CC(C)C1=NN(Cc2ccccc2)C(=O)N(c2ccc(NC(=N)N)cc2)c2ccccc21 | – | inhibition [2]: 43% |
| NCC(=O)Nc1ccc(N2C(=O)N(Cc3ccccc3)N=C(C3CCCCC3)c3ccccc32)cc1 | 676 | – |
| N=C(N)Nc1ccc(N2C(=O)N(Cc3ccccc3)N=C(CC3CCCCC3)c3ccccc32)cc1 | 562 | – |
| Cc1ccc2c(c1)N(c1ccc(NCCc3ncc[nH]3)cc1)C(=O)N(C)N=C2C1CCOCC1 | 617 | – |
| N=C(N)Nc1ccc(N2C(=O)N(Cc3ccccc3)N=C(C3CCCCC3)c3ccccc32)cc1 | 708 | – |
| Nc1ccc(N2C(=O)N(Cc3ccccc3)N=C(C3CCCCC3)c3ccccc32)cc1 | – | inhibition [3]: 39% |
| N=C(N)Nc1ccc(CN2C(=O)N(Cc3ccccc3)N=C(C3CCCCC3)c3ccccc32)cc1 | 933 | – |
| O=C1N(Cc2ccccc2)N=C(C2CCCCC2)c2ccccc2N1c1ccc(NC2=NCCN2)cc1 | 288 | – |
| N=C(N)Nc1ccc(N2C(=O)N(Cc3ccccc3)N=C(CN3CCCCC3)c3ccccc32)cc1 | – | inhibition [2]: 27% |
| O=C(O)c1ccc(N2C(=O)N(Cc3ccccc3)N=C(C3CCCCC3)c3ccccc32)cc1 | > 100000 | – |
| Cc1ccc2c(c1)N(c1ccc(NC(=N)N)cc1)C(=O)N(Cc1ccccc1)N=C2C1CCCCC1 | 155 | – |
| Cc1ccc2c(c1)N(c1ccc(NCCCc3ncc[nH]3)cc1)C(=O)N(C)N=C2C1CCCCC1 | 20.4 | – |
| CC(C)C(N)C(=O)Nc1ccc(N2C(=O)N(Cc3ccccc3)N=C(C3CCCCC3)c3ccccc32)cc1 (stereo not given) | 380 | – |
| Cc1ccc2c(c1)N(c1ccc(NCc3ncc[nH]3)cc1)C(=O)N(C)N=C2C1CCCCC1 | 50.1 | – |
| COCCN1N=C(C2CCCCC2)c2ccc(C)cc2N(c2ccc(NCCc3ncc[nH]3)cc2)C1=O | 83.2 | – |
| N=C(N)Nc1cccc(N2C(=O)N(Cc3ccccc3)N=C(C3CCCCC3)c3ccccc32)c1 | 2820 | – |

More lines, main results first:

| Ki [1] [nM] | Compound | other results |
| --- | --- | --- |
| 3.8 | Cc1ccc2c(c1)N(c1ccc(NCCc3ncc[nH]3)cc1)C(=O)N(Cc1ccccc1)N=C2C1CCCCC1 | – |
| 6.61 | Cc1ccc2c(c1)N(c1ccc(NCCc3ncc[nH]3)cc1)C(=O)N(C1CCOCC1)N=C2C1CCCCC1 | – |
| 0.912 | Cc1ccc2c(c1)N(c1ccc(NCCc3ncc[nH]3)cc1)C(=O)N(C1CCc3ccccc3CC1)N=C2C1CCCCC1 | – |
| 13.2 | Cc1ccc2c(c1)N(c1ccc(NCCc3ncc[nH]3)cc1)C(=O)N(C)N=C2C1CCCCC1 | Selectivity ratio (Homo sapiens): 100; Kb [4]: 2880 nM; Kb [5]: 19.5 nM; pKb [6]: 7.55; Kb [7]: 513 nM; Kb [8]: 17 nM |
| 1.82 | Cc1cc2c(cc1OCc1ccccc1)C(C1CCCCC1)=NN(C)C(=O)N2c1ccc(NCCc2ncc[nH]2)cc1 | – |
| 3.55 | Cc1ccc2c(c1)N(c1ccc(NCCc3ncc[nH]3)cc1)C(=O)N(C(C)C)N=C2C1CCCCC1 | – |
| 1.45 | Cc1cc2c(cc1NCc1ccccc1)C(C1CCCCC1)=NN(C)C(=O)N2c1ccc(NCCc2ncc[nH]2)cc1 | – |
| 8.71 | Cc1ccc2c(c1)N(c1ccc(NCCc3ncc[nH]3)cc1)C(=O)N(C1COc3ccccc3OC1)N=C2C1CCCCC1 | – |
| 6.76 | CCCN1N=C(C2CCCCC2)c2ccc(C)cc2N(c2ccc(NCCc3ncc[nH]3)cc2)C1=O | – |
| 6.76 | Cc1ccc2c(c1)N(c1ccc(NCCc3ncc[nH]3)cc1)C(=O)N(C1CCc3ccccc3CC1)N=C2C1CCOCC1 | – |
